Patent US20230271928A1, “NAPHTHYLUREA COMPOUND, METHODS OF PREPARATION AND USE THEREOF” (Henan Radiomedical Science and Technology Co., Ltd., priority 2021, published 2023)

Key:
Type in all cases: cell-based
[1] = test system: Jurkat cells; test: MTT proliferation assay, Jurkat; settings: 48 h
Protocol: (§1) Difference cell lines HepG2, SMMC-7721, HuH-7, MCF-7, MDA-MB-231, MDA-MB-468, PC9, PC9-AR, PC9-GR, Jurkat and Molt-13 were harvested during log phase; the number of the cells in an original cell suspension was counted; the original cell suspension was diluted to a density of 5×10^4 cells/mL; for a 96-well plate, 100 uL of the cell suspension was transferred to each well; DMSO is used as solvent for negative control; (2E)-3-(6-bromo-2-pyridyl)-2-cyano-N-[(1S)-1-phenylethyl]-2-acrylamide (WP1066CAS: 857064-38-1, with a formula
(§2) or gefitinib was used as a positive control; the naphthylurea compound ID1120B-1 and the phosphate ID1120B-P thereof were diluted with DMSO and added into the 96-well plate to achieve a final concentration of 0.1, 0.3, 1, 3, 10, 30, 100 and 300 μmol/L in each well; the 96-well plate was incubated for 48 h; 10 μL of MTT solvent (5 mg/mL) was added into each well; the 96-well plate was incubated at 37° C. for 4 h; a culture supernatant was discarded; 150 μL of DMSO was added into each well; the 96-well plate was shaken for 10 min on a plate shaker; an optical density (OD) of the resulting product was measured at a wavelength of 490 nm by an ELISA reader. Test results were recorded. A cell growth curve was drawn with the dosage of each compound as abscissa and the absorbance value as ordinate. The half maximum inhibition rates (IC50 value) of the cancer cells were shown in Table 1, FIGS. 1A-1J and FIGS. 2A-2J.

[2] = test system: PC9GR cells; test: MTT proliferation assay, PC9GR; settings: 48 h
Protocol: (§3) Test results were recorded. A cell growth curve was drawn with the dosage of each compound as abscissa and the absorbance value as ordinate.

[3] = test system: MOLT-13 cells; test: MTT proliferation assay, MOLT-13; settings: MOLT-13, MTT
Protocol: as §1, §2

[4] = test system: PC9AR cells; test: MTT proliferation assay, PC9AR; settings: 48 h
Protocol: as §3

[5] = test system: MDA-MB-231 cells; test: MTT proliferation assay, MDA-MB-231; settings: Homo sapiens; MDA-MB-231, MTT, 48 h
Protocol: as §3

[6] = test system: PC9 cells; test: MTT proliferation assay, PC9; settings: Homo sapiens, PC-9, 48 h
Protocol: as §3

[7] = test system: SMMC-7721 cells; test: MTT proliferation assay, SMMC-7721; settings: Homo sapiens; SMMC-7721, MTT, 48 h
Protocol: as §1, §2

[8] = test system: HepG2 cells; test: MTT proliferation assay, HepG2
Protocol: as §1, §2

[9] = test system: HuH-7 cells; test: MTT proliferation assay, HuH-7; settings: Homo sapiens; HuH-7, MTT, 48 h
Protocol: as §1, §2

[10] = test system: MDA-MB-468 cells; test: MTT proliferation assay, MDA-MB-468; settings: Homo sapiens, MDA-MB-468, 48 h, MDA-MB-468, MTT
Protocol: as §3

[11] = test system: HepG2 cells; test: Cell cycle analysis by PI flow cytometry; settings: HepG2, 48 h; for induction of cells in the G2/M phase / percentage of cells in the G1/S phase: compared with negative control (DMSO); for length of the G2 phase, % of the cell cycle, after treatment: value reached after treatment (increase from DMSO control value)
Protocol: HepG2 cells were harvested during log phase, digested, centrifuged and prepared into a single cell suspension; the number of the cells in the single cell suspension was counted; the cells were seeded into a 12-well plate, with 2×10^5 cells per well; three wells were used as a parallel control design; 16 hours after seeding, the cells were treated with the compounds in a concentration gradient for 48 h; the cells were digested with trypsin and resuspended; the number of the cells in the cell suspension was counted and diluted to 5×10^5 cells/mL; after the digestion was completed, the cell suspension was centrifuged; the supernatant was discarded; the pellet was washed twice with PBS (each time the mixture was centrifuged 2000 rpm for 5 min); the supernatant was discarded; a fixative comprising 980 μL of 70% cold ethanol and 20 μL of 5% BSA (a small amount of BSA reduces cellular stress and damage) was added to each microcentrifuge tube, so that the cells were fixed overnight at 4° C.; the fixative is discarded; the cells were washed three times in PBS to remove residual fixative (each time the mixture was centrifuged at 1000 rpm for 3 min); a DNA quantification kit is used to measure the content of DNA according to the following instruction (Suo Laibao, Beijing): each sample was incubated in 100 μL of RNase A at 37° C. for 30 min; 500 μL of PI (propidium iodide) was added to each sample; each sample was incubated at room temperature for 30 min in the dark; the cell cycle was analyzed by a flow cytometry and a ModFit software; and Graphpad prism 6.0 was used to estimate the percentage of a cell population in the different phases of the cell cycle.

[12] = test system: HepG2 liver cancer cells; test: Annexin V-FITC/PI apoptosis flow cytometry; settings: HepG2, 48 h; for induction of apoptosis: compared with the control group
Protocol: The HepG2 cells were harvested during log phase, digested, centrifuged and prepared into a single cell suspension; the number of the cells in the cell suspension was counted; the cells were seeded into a 12-well plate, with 2×10^5 cells per well; three wells were used as a parallel control design; 16 hours after seeding, the cells were treated with the compounds in a concentration gradient for 48 h; the cells were digested with EDTA-free trypsin and resuspended; the number of the cells in the cell suspension was counted and diluted to 1×10^6 cells/mL; an annexin V apoptosis detection kit was used according to the following instruction (Suo Laibao, Beijing): the cells were washed twice with 1×PBS (each time the mixture was centrifuged at 6000 rpm for 0.5 min), washed once with 1×Binding buffer (and the mixture was centrifuged at 6000 rpm for 0.5 min); the supernatant was discarded; the cells were resuspended with 300 μL of 1×Binding buffer; 5 μL of Annexin V-FITC was added into each tube, and incubated in the dark for 10 min; 5 μL of PI was added into each tube and incubated in the dark for 5 min; and each tube was then inspected on a machine in the dark.

[13] = test system: MCF-7 cells; test: MTT proliferation assay, MCF-7; settings: Homo sapiens, MCF7; MCF-7, MTT, 48 h; read-out: IC50
Protocol: as §3

[14] = test system: CDC2 (gene name: CDK1); test: qPCR of mRNA expression, CDK1; settings: HepG2, 10 μM, 24 h, normalised to β-actin
Protocol: (§4) HepG2 liver cancer cells were seeded in a 6-well plate, with 1×10^6 cells per well, and treated with the compound IY1214B-2 (in 0 and 10 μM concentrations) for 24 h; total RNA was extracted from the HepG2 liver cancer cells by a single-step TRIzol method; the concentration and purity of the total RNA was measured; the total RNA was used as a template; and complementary DNA (cDNA) was synthesized from the RNA template according to the instruction of a reverse transcription kit (Promega); sqRT-PCR and qPCR were used to quantify the expression of the genes CCNB1, CDK1 and SQSTM; and the gene ACTB was used as an internal reference gene for gene expression normalization.
(§5) A 20 μL reaction mix for qPCR contained:
(§6) Cycling conditions comprised:
(§7) After 40 cycles, the cycle threaded (CT) value of the β-actin gene was used as an initial value in comparison with the amount of the amplified product.

[15] = test system: Cyclin B1 (gene name: CCNB1); test: qPCR of mRNA expression, CCNB1; settings: HepG2, 10 μM, 24 h, normalised to β-actin
Protocol: as §4, §5, §6, §7

[16] = test system: p62 (gene name: SQSTM); test: qPCR of mRNA expression, SQSTM; settings: HepG2, 10 μM, 24 h, normalised to β-actin
Protocol: as §4, §5, §6, §7

[17] = concentration of 8 μL (so in the source)

O=C(NCc1ccccc1)Nc1ccc(OCc2ccc(OCCN3CCCCC3)cc2)c2ccccc12 [ID1120B-1, 1-benzyl-3-(4-((4-(2-(piperidin-1-yl)ethoxy)benzyl)oxy)naphthalen-1-yl)urea]
IC50 ([1]; Homo sapiens): 3.23 µM
IC50 [2]: 32.3 µM
IC50 ([3]; Homo sapiens, MOLT-13, 48 h): 10.8 µM
IC50 [4]: 8 µM
IC50 [5]: 17.5 µM
IC50 [6]: 14.1 µM
IC50 [7]: 3.51 µM
IC50 ([8]; 48 h): 1.68 µM
IC50 [9]: 3.15 µM
IC50 [10]: 4.92 µM
induction of cells in the G2/M phase [11]: dramatically induce the liver cancer cells in the G2/M phase in a dose-dependent manner
percentage of cells in the G1/S phase [11]: significantly decrease the percentage of the liver cancer cells in the G1/S phase

O=C(NCc1ccccc1)Nc1ccc(OCc2ccc(OCCN3CCCCC3)cc2)c2ccccc12 [ID1120B-P, 1-benzyl-3-(4-((4-(2-(piperidin-1-yl)ethoxy)benzyl)oxy)naphthalen-1-yl)urea phosphate]
IC50 ([1]; phosphate): 4.74 µM
IC50 ([3]; 48 h, phosphate): 9.79 µM
IC50 ([8]; Homo sapiens, HepG2, 48 h): 2.37 µM

COc1ccc(NC(=O)Nc2ccc(OCc3ccc(OCCN4CCCCC4)cc3)c3ccccc23)cc1 [IY1214A-1]
apoptosis rate ([12]; 4 μM): 57.7%
apoptosis rate, times higher than that of untreated wells ([12]; 4 μM and 8 μM): more than 2 times
apoptosis rate ([12]; 8 μM): 63%
induction of apoptosis [12]: induce apoptosis in the HepG2 liver cancer cells in a dose-dependent manner
IC50 [5]: 2.11 µM
IC50 [7]: 3.57 µM
IC50 ([8]; Homo sapiens, HepG2, 48 h): 1.85 µM
IC50 [9]: 2.76 µM
IC50 [13]: 3.54 µM
induction of cells in the G2/M phase [11]: dramatically induce the liver cancer cells in the G2/M phase in a dose-dependent manner
percentage of cells in the G1/S phase [11]: significantly decrease the percentage of the liver cancer cells in the G1/S phase
length of the G2 phase, % of the cell cycle, after treatment [11]: 34.54%

O=C(Nc1ccc(OC(F)(F)F)cc1)Nc1ccc(OCc2ccc(OCCN3CCCCC3)cc2)c2ccccc12 [IY1214B-2]
CDK1 mRNA level down-regulated by [14]: 20-25%
induction of apoptosis [12]: induce apoptosis in the HepG2 liver cancer cells in a dose-dependent manner
apoptosis rate [12, 17]: 47.1%
apoptosis rate, times higher than that of untreated wells [12, 17]: 3.3 times
CCNB1 mRNA level down-regulated by [15]: 20-25%
SQSTM (p62) expression level up-regulated by [16]: 2.5 times
IC50 [7]: 31.4 µM
IC50 ([8]; Homo sapiens, HepG2, 48 h): 3.85 µM
IC50 [9]: 23.1 µM
IC50 [10]: 3.85 µM
induction of cells in the G2/M phase [11]: dramatically induce the liver cancer cells in the G2/M phase in a dose-dependent manner
percentage of cells in the G1/S phase [11]: significantly decrease the percentage of the liver cancer cells in the G1/S phase
length of the G2 phase, % of the cell cycle, after treatment [11]: 21.71%

C[C@H](NC(=O)/C(C#N)=C/c1cccc(Br)n1)c1ccccc1 [WP1066, (2E)-3-(6-bromo-2-pyridyl)-2-cyano-N-[(1S)-1-phenylethyl]-2-acrylamide, reference compound]
IC50 ([1]; Homo sapiens): 10 µM
IC50 [2]: 14.7 µM
IC50 ([3]; Homo sapiens, MOLT-13, 48 h): 17.1 µM
IC50 [4]: 8.49 µM
IC50 [5]: 10.2 µM
IC50 [6]: 9.26 µM
IC50 [7]: 11.9 µM
IC50 ([8]; Homo sapiens, HepG2, 48 h): 9.21 µM
IC50 [9]: 8.11 µM
IC50 [13]: 18 µM
IC50 [10]: 13.2 µM
